From paper PMC2895411 (Journal of medicinal chemistry, 2010)
Entries after “also recorded” stand apart in the source; their conditions may differ.

The molecules below were run against T1, human TLR7 (Homo sapiens, UniProt Q9NYK1) (assay: NF-κB induction, human TLR7-specific reporter gene assay). Settings: not given.
T1 sequence (Q9NYK1 27-1049): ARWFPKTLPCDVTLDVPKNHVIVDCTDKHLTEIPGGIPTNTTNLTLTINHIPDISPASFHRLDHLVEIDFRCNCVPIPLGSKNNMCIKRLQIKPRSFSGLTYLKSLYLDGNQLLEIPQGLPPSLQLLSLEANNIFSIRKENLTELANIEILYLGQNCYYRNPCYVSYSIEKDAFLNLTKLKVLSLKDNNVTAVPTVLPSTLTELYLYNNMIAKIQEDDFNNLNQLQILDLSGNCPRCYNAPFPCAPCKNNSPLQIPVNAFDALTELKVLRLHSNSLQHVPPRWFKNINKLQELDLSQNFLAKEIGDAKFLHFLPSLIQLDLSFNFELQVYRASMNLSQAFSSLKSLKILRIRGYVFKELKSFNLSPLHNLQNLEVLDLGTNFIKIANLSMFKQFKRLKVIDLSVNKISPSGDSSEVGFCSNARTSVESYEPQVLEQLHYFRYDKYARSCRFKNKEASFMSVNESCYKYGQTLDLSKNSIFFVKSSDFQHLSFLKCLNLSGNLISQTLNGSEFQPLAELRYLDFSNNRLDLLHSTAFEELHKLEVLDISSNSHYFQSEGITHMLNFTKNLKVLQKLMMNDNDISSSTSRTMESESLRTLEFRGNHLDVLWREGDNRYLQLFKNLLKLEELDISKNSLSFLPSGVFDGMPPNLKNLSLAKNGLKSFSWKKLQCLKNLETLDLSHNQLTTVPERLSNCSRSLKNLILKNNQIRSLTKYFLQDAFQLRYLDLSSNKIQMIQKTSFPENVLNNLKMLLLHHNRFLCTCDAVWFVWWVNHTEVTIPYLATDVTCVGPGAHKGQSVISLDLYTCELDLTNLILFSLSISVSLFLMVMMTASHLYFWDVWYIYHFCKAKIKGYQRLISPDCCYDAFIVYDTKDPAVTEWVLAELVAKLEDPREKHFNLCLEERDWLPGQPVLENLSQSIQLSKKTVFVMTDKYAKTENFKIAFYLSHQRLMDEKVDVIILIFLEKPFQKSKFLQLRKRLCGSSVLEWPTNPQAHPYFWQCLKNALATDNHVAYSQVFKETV
Assay type: cell-based

| SMILES | EC50 |
| --- | --- |
| CC(C)Cn1cnc2c(N)nc3ccccc3c21 [Compound 1, Imiquimod, reference compound] | ~2000 nM |

Same assay, conditions: fold greater activity than 2

| SMILES | TLR7 activity relative to compound 2 |
| --- | --- |
| CCCCCc1nc2c(N)nc3ccccc3c2n1Cc1ccccc1 [Compound 32, 1-Benzyl-2-pentyl-1H-imidazo[4,5-c]quinolin-4-amine] | twenty-fold greater |

Same assay, conditions: human TLR7 reporter gene assay

| SMILES | TLR7-agonistic activity, result in words |
| --- | --- |
| CCN(CCCNC(=S)NCCCNCCCCNCCCN)Cc1nc2c(N)nc3ccccc3c2n1CC(C)(C)O [Compound 16, 1-(3-(((4-amino-1-(2-hydroxy-2-methylpropyl)-1H-imidazo[4,5-c]quinolin-2-yl)methyl)(ethyl)amino)propyl)-3-(3-(4-(3-aminopropylamino)butylamino)propyl) thiourea] | inactive |
| Nc1nc2ccccc2c2c1nnn2Cc1ccccc1 [Compound 56, 1-Benzyl-1H-[1,2,3]triazolo[4,5-c]quinolin-4-amine] | completely inactive |
| CC/N=C(/NCCCN(C)C)N(CC)Cc1nc2c(N)nc3ccccc3c2n1CC(C)(C)O [Compound 6, 1-((4-Amino-1-(2-hydroxy-2-methylpropyl)-1H-imidazo[4,5-c]quinolin-2-yl)methyl)-3-(3-(dimethylamino)propyl)-1,2-diethylguanidine] | bereft of activity |
| CCCNC(=O)n1c(=O)n(Cc2ccccc2)c2c3ccccc3ncc21 [Compound 57, 1-Benzyl-2-oxo-N-propyl-1H-imidazo[4,5-c]quinoline-3(2H)-carboxamide] | completely inactive |
| CCCCCc1nc2c(Cl)nc3ccccc3c2n1Cc1ccccc1 [Compound 44, 1-Benzyl-4-chloro-2-pentyl-1H-imidazo[4,5-c]quinoline] | completely inactive |
| C#CCCc1nc2c(N)nc3ccccc3c2n1Cc1ccccc1 [Compound 43, 1-Benzyl-2-(but-3-ynyl)-1H-imidazo[4,5-c]quinolin-4-amine] | decrease in potency |
| CCN(CC)Cc1nc2c(N)nc3ccccc3c2n1CC(C)(C)O [Compound 3, 1-(4-Amino-2-((diethylamino)methyl)-1H-imidazo[4,5-c]quinolin-1-yl)-2-methylpropan-2-ol] | partial activity |
| CCCCCc1nc2c(-c3ccccc3)nc3ccccc3c2n1Cc1ccccc1 [Compound 47, 1-Benzyl-2-pentyl-4-phenyl-1H-imidazo[4,5-c]quinoline] | completely inactive |
| CCNCc1nc2c(N)nc3ccccc3c2n1Cc1ccccc1 [Compound 52, 1-Benzyl-2-((ethylamino)methyl)-1H-imidazo[4,5-c]quinolin-4-amine] | very active |
| CCCCCCCCCCCNCc1nc2c(N)nc3ccccc3c2n1CC(C)(C)O [Compound 22, 1-(4-Amino-2-((undecylamino)methyl)-1H-imidazo[4,5-c]quinolin-1-yl)-2-methylpropan-2-ol] | complete loss of activity; also recorded: completely inactive |
| CCCCc1nc2c(NO)nc3ccccc3c2n1Cc1ccccc1 [Compound 48, N-(1-Benzyl-2-butyl-1H-imidazo[4,5-c]quinolin-4-yl)hydroxylamine] | substantially weaker |
| C=CCCc1nc2c(N)nc3ccccc3c2n1Cc1ccccc1 [Compound 38, 1-Benzyl-2-(but-3-enyl)-1H-imidazo[4,5-c]quinolin-4-amine] | decrease in potency |
| Clc1nc2ccccc2c2c1nnn2Cc1ccccc1 [Compound 55, 1-Benzyl-4-chloro-1H-[1,2,3]triazolo[4,5-c]quinoline] | completely inactive |
| CCCCc1nc2cnc3ccccc3c2n1Cc1ccccc1 [Compound 50, 1-Benzyl-2-butyl-1H-imidazo[4,5-c]quinoline] | completely inactive |
| CCCCCCCCCCCCCCCC(=O)N(CC)Cc1nc2c(N)nc3ccccc3c2n1CC(C)(C)O [Compound 5, N-((4-Amino-1-(2-hydroxy-2-methylpropyl)-1H-imidazo[4,5-c]quinolin-2-yl)methyl)-N-ethylpalmitamide] | bereft of activity |
| CCCCc1nc2c(NN)nc3ccccc3c2n1Cc1ccccc1 [Compound 49, 1-Benzyl-2-butyl-4-hydrazinyl-1H-imidazo[4,5-c]quinoline] | substantially weaker |
| CCN(Cc1nc2c(N)nc3ccccc3c2n1CC(C)(C)O)C(C)=O [Compound 4, N-((4-Amino-1-(2-hydroxy-2-methylpropyl)-1H-imidazo[4,5-c]quinolin-2-yl)methyl)-N-ethylacetamide] | bereft of activity |
| CCN(CCOCCOCCN)Cc1nc2c(N)nc3ccccc3c2n1CC(C)(C)O [Compound 11, 1-(4-Amino-2-(((2-(2-(2-aminoethoxy)ethoxy)ethyl) (ethyl)amino)methyl)-1H-imidazo[4,5-c]quinolin-1-yl)-2-methylpropan-2-ol] | completely inactive |
| CCCCCc1nc2c(O)nc3ccccc3c2n1Cc1ccccc1 [Compound 46, 1-Benzyl-2-pentyl-1H-imidazo[4,5-c]quinolin-4-ol] | completely inactive |
